Test results from ChEMBL document CHEMBL3774345, “Synthesis of new diarylamides with pyrimidinyl pyridine scaffold and evaluation of their anti-proliferative effect on cancer cell lines” (Bioorg Med Chem Lett, 2016).

Legend:
[1] = Cytotoxicity against human OVCAR8 cells assessed as cell growth at 10^-8 M after 24 hrs by SRB assay; assay type: functional; conditions: OVCAR-8, 24 h, read-out: Activity
[2] = Cytotoxicity against human NCI-ADR-RES cells assessed as cell growth at 10^-8 M after 24 hrs by SRB assay; assay type: functional; conditions: read-out: Activity
[3] = Cytotoxicity against human UO31 cells assessed as cell growth at 10^-8 M after 24 hrs by SRB assay; assay type: functional; conditions: UO-31, 24 h, read-out: Activity
[4] = Cytotoxicity against human Hs 578T cells assessed as cell growth at 10^-8 M after 24 hrs by SRB assay; assay type: functional; conditions: read-out: Activity
[5] = test system: SR; assay: Cytotoxicity against human SR cells assessed as cell growth at 10^-7 M after 24 hrs by SRB assay; assay type: functional; conditions: read-out: Activity
[6] = Cytotoxicity against human HCC2998 cells assessed as cell growth at 10^-7 M after 24 hrs by SRB assay; assay type: functional; conditions: HCC 2998, 24 h, read-out: Activity
[7] = test system: EKVX; assay: Cytotoxicity against human EKVX cells assessed as cell growth at 10^-4 M after 24 hrs by SRB assay; assay type: functional; conditions: read-out: Activity
[8] = Cytotoxicity against human HOP62 cells assessed as cell growth at 10^-4 M after 24 hrs by SRB assay; assay type: functional; conditions: HOP-62, 24 h, read-out: Activity
[9] = Cytotoxicity against human SF539 cells after 24 hrs by SRB assay; assay type: functional, cell-based; conditions: SF-539, 24 h
[10] = test system: NCI-H23; assay: Cytotoxicity against human NCI-H23 cells assessed as cell growth at 10^-4 M after 24 hrs by SRB assay; assay type: functional; conditions: NCI-H23, 24 h, read-out: Activity
[11] = Cytotoxicity against human HCC2998 cells assessed as cell growth at 10^-4 M after 24 hrs by SRB assay; assay type: functional; conditions: HCC 2998, 24 h, read-out: Activity
[12] = Cytotoxicity against human SF539 cells assessed as cell growth at 10^-4 M after 24 hrs by SRB assay; assay type: functional; conditions: SF-539, 24 h, read-out: Activity
[13] = test system: T47D; assay: Cytotoxicity against human T47D cells assessed as cell growth at 10^-7 M after 24 hrs by SRB assay; assay type: functional; conditions: read-out: Activity
[14] = Cytotoxicity against human MOLT4 cells assessed as cell growth at 10^-6 M after 24 hrs by SRB assay; assay type: functional; conditions: MOLT-4, 24 h, read-out: Activity
[15] = test system: A549; assay: Cytotoxicity against human A549 cells assessed as cell growth at 10^-6 M after 24 hrs by SRB assay; assay type: functional; conditions: A549, 24 h, read-out: Activity
[16] = test system: EKVX; assay: Cytotoxicity against human EKVX cells assessed as cell growth at 10^-6 M after 24 hrs by SRB assay; assay type: functional; conditions: read-out: Activity
[17] = test system: SK-MEL-28; assay: Cytotoxicity against human SK-MEL-28 cells assessed as cell growth at 10^-4 M after 24 hrs by SRB assay; assay type: functional; conditions: SK-MEL-28, 24 h, read-out: Activity
[18] = Cytotoxicity against human UACC62 cells assessed as cell growth at 10^-4 M after 24 hrs by SRB assay; assay type: functional; conditions: UACC-62, 24 h, read-out: Activity
[19] = Cytotoxicity against human SF295 cells assessed as cell growth at 10^-6 M after 24 hrs by SRB assay; assay type: functional; conditions: SF-295, 24 h, read-out: Activity
[20] = Cytotoxicity against human SNB75 cells assessed as cell growth at 10^-6 M after 24 hrs by SRB assay; assay type: functional; conditions: SNB-75, 24 h, read-out: Activity
[21] = test system: Malme-3M; assay: Cytotoxicity against human MALME-3M cells assessed as cell growth at 10^-6 M after 24 hrs by SRB assay; assay type: functional; conditions: read-out: Activity
[22] = Cytotoxicity against human OVCAR5 cells assessed as cell growth at 10^-6 M after 24 hrs by SRB assay; assay type: functional; conditions: OVCAR-5, 24 h, read-out: Activity
[23] = Cytotoxicity against human DU145 cells assessed as cell growth at 10^-6 M after 24 hrs by SRB assay; assay type: functional; conditions: DU-145, 24 h, read-out: Activity
[24] = test system: ACHN; assay: Cytotoxicity against human ACHN cells after 24 hrs by SRB assay; assay type: functional
[25] = Cytotoxicity against human MOLT4 cells assessed as cell growth at 10^-8 M after 24 hrs by SRB assay; assay type: functional; conditions: MOLT-4, 24 h, read-out: Activity
[26] = test system: NCI-H460; assay: Cytotoxicity against human NCI-H460 cells assessed as cell growth at 10^-8 M after 24 hrs by SRB assay; assay type: functional; conditions: NCI-H460, 24 h, read-out: Activity
[27] = Cytotoxicity against human HCT15 cells assessed as cell growth at 10^-8 M after 24 hrs by SRB assay; assay type: functional; conditions: HCT-15, 24 h, read-out: Activity
[28] = Cytotoxicity against human SF539 cells assessed as cell growth at 10^-8 M after 24 hrs by SRB assay; assay type: functional; conditions: SF-539, 24 h, read-out: Activity
[29] = test system: SK-MEL-28; assay: Cytotoxicity against human SK-MEL-28 cells assessed as cell growth at 10^-8 M after 24 hrs by SRB assay; assay type: functional; conditions: SK-MEL-28, 24 h, read-out: Activity
[30] = Cytotoxicity against human UACC62 cells assessed as cell growth at 10^-8 M after 24 hrs by SRB assay; assay type: functional; conditions: UACC-62, 24 h, read-out: Activity
[31] = Cytotoxicity against human HOP92 cells assessed as cell growth at 10^-5 M after 24 hrs by SRB assay; assay type: functional; conditions: HOP-92, 24 h, read-out: Activity
[32] = Cytotoxicity against human COLO205 cells assessed as cell growth at 10^-5 M after 24 hrs by SRB assay; assay type: functional; conditions: COLO 205, 24 h, read-out: Activity
[33] = Cytotoxicity against human HCT15 cells assessed as cell growth at 10^-5 M after 24 hrs by SRB assay; assay type: functional; conditions: HCT-15, 24 h, read-out: Activity
[34] = Cytotoxicity against human SNB75 cells assessed as cell growth at 10^-5 M after 24 hrs by SRB assay; assay type: functional; conditions: SNB-75, 24 h, read-out: Activity
[35] = test system: SK-MEL-2; assay: Cytotoxicity against human SK-MEL-2 cells assessed as cell growth at 10^-5 M after 24 hrs by SRB assay; assay type: functional; conditions: SK-MEL-2, 24 h, read-out: Activity
[36] = test system: SK-MEL-28; assay: Cytotoxicity against human SK-MEL-28 cells assessed as cell growth at 10^-5 M after 24 hrs by SRB assay; assay type: functional; conditions: SK-MEL-28, 24 h, read-out: Activity
[37] = Cytotoxicity against human OVCAR8 cells assessed as cell growth at 10^-5 M after 24 hrs by SRB assay; assay type: functional; conditions: OVCAR-8, 24 h, read-out: Activity
[38] = Cytotoxicity against human SKOV3 cells assessed as cell growth at 10^-5 M after 24 hrs by SRB assay; assay type: functional; conditions: SK-OV-3, 24 h, read-out: Activity
[39] = Cytotoxicity against human RXF393 cells assessed as cell growth at 10^-5 M after 24 hrs by SRB assay; assay type: functional; conditions: RXF 393, 24 h, read-out: Activity
[40] = test system: SR; assay: Cytotoxicity against human SR cells assessed as growth inhibition at 10 uM after 24 hrs by SRB assay; assay type: functional; conditions: read-out: GI
[41] = read-out: LC50 (the source's name)
[42] = read-out: pLC50 (the source's name) (converted)

Work on `O=C(Nc1cc(-c2cccnc2)nc(NCCCN2CCOCC2)n1)c1cc(Br)cc(C(F)(F)F)c1` yielded a growth at 0.01 µM [1] of 106%, a growth at 0.01 µM [2] of 100% and a growth at 0.01 µM [3] of 95%. The growth at 0.01 µM [4] was 93%, the growth at 0.1 µM [5] was 106% and the growth at 0.1 µM [6] was 100%. The growth at 100 µM [7] was -89%, the growth at 100 µM [8] was -97% and the GI50 ([9]; read-out: GI50) was 1670 nM. It also gave a CC50 [9, 41] of 7.2 µM, a TGI ([9]; read-out: TGI) of 3.47 µM and a GI50 ([9]; read-out: pGI50 (converted)) of 1660 nM. The CC50 [9, 42] was 7.24 µM, the TGI ([9]; read-out: pTGI (converted)) was 3.47 µM and the growth at 100 µM [10] was -85%. For the same molecule, the growth at 100 µM [11] was -97%, the growth at 100 µM [12] was -85% and the growth at 0.1 µM [13] was 91%. For the same molecule, the growth at 1 µM [14] was 102%, the growth at 1 µM [15] was 119% and the growth at 1 µM [16] was 76%. The growth at 100 µM [17] was -77%, the growth at 100 µM [18] was -90% and the growth at 1 µM [19] was 97%. It also gave a growth at 1 µM [20] of 74%, a growth at 1 µM [21] of 90% and a growth at 1 µM [22] of 92%. For the same molecule, the growth at 1 µM [23] was 101%, the GI50 ([24]; read-out: GI50) was 3.04 µM and the CC50 [24, 41] was 44.6 µM. The TGI ([24]; read-out: TGI) was 11.3 µM, the GI50 ([24]; read-out: pGI50 (converted)) was 3.02 µM and the CC50 [24, 42] was 44.7 µM. It also gave a TGI ([24]; read-out: pTGI (converted)) of 11.2 µM, a growth at 0.01 µM [25] of 99% and a growth at 0.01 µM [26] of 99%. The growth at 0.01 µM [27] was 91%, the growth at 0.01 µM [28] was 95% and the growth at 0.01 µM [29] was 92%. For the same molecule, the growth at 0.01 µM [30] was 89%, the growth at 10 µM [31] was -10% and the growth at 10 µM [32] was -79%. For the same molecule, the growth at 10 µM [33] was -32%, the growth at 10 µM [34] was -60% and the growth at 10 µM [35] was 27%. It also gave a growth at 10 µM [36] of -75%, a growth at 10 µM [37] of -7% and a growth at 10 µM [38] of 42%. For the same molecule, the growth at 10 µM [39] was -73%.
Molecule `COc1cc(OC)cc(C(=O)Nc2cc(-c3cccnc3)nc(NCCCN3CCOCC3)n2)c1` has an inhibition of growth at 10 µM [40] of 42.1%.
